Here are results for 63 molecules from patent US20100267712A1, “ISOINDOLINE COMPOUNDS FOR THE TREATMENT OF SPINAL MUSCULAR ATROPHY AND OTHER USES” (The United States of America, as represented by the …, priority 2007, published 2010).

This assay deals with SMN2-linked luciferase-reporter gene construct. Kind of assay: SMN Splice Reporter Assay (SMN2-linked luciferase reporter). The class given is cell-based. Conditions: for EC50: cervical carcinoma cell lines, SMN2 splice luciferase reporter; for Fold Increase: fold-increase of luciferase over baseline reading of transformed cells without any test compound. The method in brief: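 Cervical carcinoma cells carrying an SMN2-luciferase splicing reporter, in-frame only with exon 7 inclusion, were treated with compound. Luciferase activity reported as fold increase over untreated transformed cells, with EC50 derived.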

Take `Cn1ccc2cc(N3Cc4ccc(OCC(F)(F)F)cc4C3=O)ccc21` [Example 122043]: the EC50 worked out at 540 nM and the “Fold Increase” value is 1.341.

In the case of `COc1ccc2c(c1)C(=O)N(c1ccc3c(c1)c(Br)cn3C)C2` [Example 122044], the response was half-maximal at 160 nM (EC50) and the “Fold Increase” value came to 1.383.

As for `Cn1ccc2cc(N3Cc4ccc(OC(F)(F)C(F)Cl)cc4C3=O)ccc21` (stereo not shown) [Example 122180], the response was half-maximal at 92 nM (EC50) and the “Fold Increase” value is reported as 1.64.

Consider `Cn1ccc2cc(N3Cc4ccc(-c5cncnc5)cc4C3=O)ccc21` [Example 122181], for which the “Fold Increase” value was 1.169.

As for `COc1ccc2c(c1)CN(c1ccc3c(ccn3C)c1)C2` [Example 122183], the concentration giving a half-maximal response (EC50) came to 593 nM and the “Fold Increase” value is given as 1.518.

In the case of `COc1ccc2c(c1)C(=O)N(c1ccc3c(c1)c(C)cn3C)C2` [Example 122184], the midpoint of the response, the EC50, lay at 409 nM and the “Fold Increase” value stood at 1.639.

With `COc1ccc2c(c1)C(=O)N(c1ccc3c(c1)CCN3C)C2` [Example 122314], the “Fold Increase” value was determined as 1.026.

As for `COc1ccc(-c2ccc3c(c2)C(=O)N(c2ccc4ccn(C)c4c2)C3)cc1` [Example 122315], the “Fold Increase” value was determined as 1.091.

On to `Cn1ccc2cc(N3Cc4cc(F)ccc4C3=O)ccc21` [Example 122316], for which it took 65 nM to reach a half-maximal effect (EC50) and the “Fold Increase” value was determined as 1.401.

Regarding `Cn1ccc2ccc(N3Cc4ccc(-c5cccnc5)cc4C3=O)cc21` [Example 122318], the EC50 was found to be 459 nM and the “Fold Increase” value came to 1.94.

Take `CN1CCCc2cc(N3Cc4ccc(OC(F)F)cc4C3=O)ccc21` [Example 122319]: the response was half-maximal at 203 nM (EC50) and the “Fold Increase” value is recorded as 1.97.

Consider `O=C1c2cc(O)ccc2CN1c1ccc2sccc2c1` [Example 122430], for which the EC50 worked out at 86 nM and the “Fold Increase” value is listed as 1.769.

`Cn1ccc2cc(N3Cc4ccc(OC(F)(F)Br)cc4C3=O)ccc21` [Example 122431]: the EC50 is 220 nM and the “Fold Increase” value was 1.552.

In the case of `COc1ccc2c(c1)C(=O)N(c1ccc3nc(OC)ncc3c1)C2` [Example 122432], the response was half-maximal at 1140 nM (EC50) and the “Fold Increase” value came out at 1.32.

As to `Cn1ccc2ccc(N3Cc4ccc(-c5cncnc5)cc4C3=O)cc21` [Example 122433], a half-maximal response (EC50) required 1070 nM and the “Fold Increase” value is listed as 1.333.

With `COc1ccc2c(c1)C(=O)N(c1ccc3scc(Br)c3c1)C2` [Example 122434], the EC50 worked out at 378 nM and the “Fold Increase” value was 1.718.

Consider `COc1ccc2c(c1)C(=O)N(c1ccc3c(c1)N(C)CCN3C)C2` [Example 122436], for which a half-maximal response (EC50) required 5950 nM and the “Fold Increase” value is 1.354.

As to `CCCOc1ccc2c(c1)C(=O)N(c1ccc3sccc3c1)C2` [Example 122551], the “Fold Increase” value is listed as 1.235.

For `CCCCOc1ccc2c(c1)C(=O)N(c1ccc3sccc3c1)C2` [Example 122552], the “Fold Increase” value is recorded as 1.202.

In the case of `CC(C)Oc1ccc2c(c1)C(=O)N(c1ccc3sccc3c1)C2` [Example 122553], the “Fold Increase” value is 1.082.

For `CCOc1ccc2c(c1)C(=O)N(c1ccc3sccc3c1)C2` [Example 122554], the EC50 was found to be 27 nM and the “Fold Increase” value stood at 1.475.

For `Cc1ccc2c(c1)C(=O)N(c1ccc3ccsc3c1)C2` [Example 122555], the EC50 came out at 87 nM and the “Fold Increase” value is on record as 1.509.

On to `O=C1c2cc(O)ccc2CN1c1ccc2ccsc2c1` [Example 122556], for which a half-maximal effect (EC50) was put at 139 nM and the “Fold Increase” value is reported as 1.671.

As for `O=C1c2cc(Br)ccc2CN1c1ccc2ccsc2c1` [Example 122557], the “Fold Increase” value stood at 1.383.

For the molecule `O=C1c2cc(Br)ccc2CN1c1ccc2sccc2c1` [Example 122558], it took 94 nM to reach a half-maximal effect (EC50) and the “Fold Increase” value is 1.469.

`CCc1ccc2c(c1)C(=O)N(c1ccc3ccsc3c1)C2` [Example 122683]: a half-maximal response (EC50) required 125 nM and the “Fold Increase” value was determined as 1.582.

For `CCc1ccc2c(c1)C(=O)N(c1ccc3sccc3c1)C2` [Example 122684], the response was half-maximal at 57 nM (EC50) and the “Fold Increase” value is 1.665.

Take `CCCc1ccc2c(c1)C(=O)N(c1ccc3sccc3c1)C2` [Example 122819]: the midpoint of the response, the EC50, lay at 35 nM and the “Fold Increase” value worked out at 1.547.

Take `COc1ccc2c(c1)C(=O)N(c1ccc3nccc(N(C)C)c3c1)C2` [Example 122820]: the “Fold Increase” value was 1.066.

With `COc1ccc2c(c1)C(=O)N(c1ccc3cccnc3c1)C2` [Example 122821], the EC50 is 37 nM and the “Fold Increase” value is 1.401.

Regarding `Cc1cc2cc(N3Cc4ccc(O)cc4C3=O)ccc2n1C` [Example 123010], the EC50 turned out to be 302 nM and the “Fold Increase” value was 1.336.

Consider `COc1ccc2c(c1)C(=O)N(c1ccc3scc(C)c3c1)C2` [Example 123012], for which the EC50 turned out to be 272 nM and the “Fold Increase” value was found to be 1.773.

For the molecule `COc1ccc2c(c1)C(=O)N(c1ccc3nccc(Cl)c3c1)C2` [Example 123013], the midpoint of the response, the EC50, lay at 902 nM and the “Fold Increase” value is listed as 1.413.

As for `CCCc1ccc2c(c1)C(=O)N(c1ccc3c(c1)cc(C)n3C)C2` [Example 123014], it took 323 nM to reach a half-maximal effect (EC50) and the “Fold Increase” value was 1.407.

Regarding `Cc1ccc2c(c1)C(=O)N(c1ccc3c(c1)cc(C)n3C)C2` [Example 123015], a half-maximal response (EC50) required 53 nM and the “Fold Increase” value was determined as 1.43.

In the case of `CCc1ccc2c(c1)C(=O)N(c1ccc3c(c1)cc(C)n3C)C2` [Example 123016], the EC50 turned out to be 197 nM and the “Fold Increase” value was determined as 1.481.

On to `Cc1cc2cc(N3Cc4ccc(OC(F)F)cc4C3=O)ccc2n1C` [Example 123204], for which a half-maximal response (EC50) required 374 nM and the “Fold Increase” value is given as 1.361.

For `COc1ccc2c(c1)C(=O)N(c1ccc3nccc(OC)c3c1)C2` [Example 123205], the “Fold Increase” value is 1.227.

Consider `COc1ccc2c(c1)C(=O)N(c1ccc3nc(Cl)ccc3c1)C2` [Example 123206], for which a half-maximal effect (EC50) was put at 119 nM and the “Fold Increase” value was determined as 1.531.

For `CCOc1ccc2c(c1)C(=O)N(c1ccc3c(c1)cc(C)n3C)C2` [Example 123328], the EC50 is 444 nM and the “Fold Increase” value is 1.316.

Take `CCC(C)c1ccc2c(c1)C(=O)N(c1ccc3c(c1)cc(C)n3C)C2` (stereo not shown) [Example 123329]: the midpoint of the response, the EC50, lay at 569 nM and the “Fold Increase” value was 1.327.

As to `CCCCc1ccc2c(c1)C(=O)N(c1ccc3c(c1)cc(C)n3C)C2` [Example 123331], the EC50 is 660 nM and the “Fold Increase” value was found to be 1.31.

For the molecule `COc1ccc2c(c1)C(=O)N(c1ccc3nc(N(C)C)ccc3c1)C2` [Example 123332], a half-maximal response (EC50) required 207 nM and the “Fold Increase” value was 1.272.

As for `COc1ccc2c(c1)C(=O)N(c1ccc3nc(OC)ccc3c1)C2` [Example 123333], the EC50 came out at 20 nM and the “Fold Increase” value came out at 1.376.

Take `Cc1cc2cc(N3Cc4ccc(CC(C)C)cc4C3=O)ccc2n1C` [Example 123439]: it took 359 nM to reach a half-maximal effect (EC50) and the “Fold Increase” value is 1.357.

As to `Cn1ccc2cc(N3Cc4ccc(N5CCOCC5)cc4C3=O)ccc21` [Example 123587], the “Fold Increase” value was 1.256.

With `CN1CCN(c2ccc3c(c2)C(=O)N(c2ccc4c(ccn4C)c2)C3)CC1` [Example 123588], the “Fold Increase” value amounted to 1.183.

As for `COc1ccc2c(c1)C(=O)N(c1ccc3nccc(C)c3c1)C2` [Example 123589], a half-maximal effect (EC50) was put at 78 nM and the “Fold Increase” value is on record as 1.541.

As for `COc1ccc2c(c1)C(=O)N(c1ccc3sc(C)c(C)c3c1)C2` [Example 123590], the EC50 came to 128 nM and the “Fold Increase” value is listed as 1.405.

On to `COc1ccc2c(c1)C(=O)N(c1ccc3ccc(Cl)nc3c1)C2` [Example 123710], for which the midpoint of the response, the EC50, lay at 47 nM and the “Fold Increase” value worked out at 1.327.

For the molecule `COc1ccc2c(c1)C(=O)N(c1ccc3c(Cl)ccnc3c1)C2` [Example 123711], the EC50 amounted to 1580 nM and the “Fold Increase” value stood at 1.262.

Turning to `COc1ccc2c(c1)C(=O)N(c1ccc3c(OC)ccnc3c1)C2` [Example 123712], it took 147 nM to reach a half-maximal effect (EC50) and the “Fold Increase” value came to 1.38.

`COc1ccc2c(c1)C(=O)N(c1ccc3c(N(C)C)ccnc3c1)C2` [Example 123713]: the “Fold Increase” value was 1.072.

Take `CCCOc1ccc2c(c1)C(=O)N(c1ccc3c(c1)cc(C)n3C)C2` [Example 123715]: the midpoint of the response, the EC50, lay at 145 nM and the “Fold Increase” value is 1.216.

With `COc1ccc2c(c1)C(=O)N(c1ccc3c(c1)cc(C(=O)N1CCCC1)n3C)C2` [Example 123935], the “Fold Increase” value is recorded as 1.124.

`COc1ccc2c(c1)C(=O)N(c1ccc3ccc(OC)nc3c1)C2` [Example 123936]: the EC50 is 784 nM and the “Fold Increase” value was 1.429.

Consider `COc1ccc2c(c1)C(=O)N(c1ccc3ccc(N(C)C)nc3c1)C2` [Example 123937], for which the “Fold Increase” value is listed as 1.202.

In the case of `Cc1cc2cc(N3Cc4ccc(OC5CCCC5)cc4C3=O)ccc2n1C` [Example 123938], the “Fold Increase” value is given as 1.2.

With `CCOC1CS(=O)(=O)c2cc(N3Cc4ccc(OC)cc4C3=O)ccc21` (stereo not shown) [Example 124031], the “Fold Increase” value was found to be 1.106.

`O=C1c2cc(Br)ccc2CN1c1ccc2ncccc2c1` [Example 124033]: the EC50 is 225 nM and the “Fold Increase” value is 1.795.

For `CC(=O)Nc1ccc2c(c1)C(=O)N(c1ccc3c(c1)cc(C)n3C)C2` [Example 124034], the midpoint of the response, the EC50, lay at 440 nM and the “Fold Increase” value is 1.494.

With `CCCCOc1ccc2c(c1)C(=O)N(c1ccc3c(c1)cc(C)n3C)C2` [Example 124035], the “Fold Increase” value is given as 1.118.

In the case of `COc1cc2c(cc1OC)C(=O)N(c1ccc3c(c1)cc(C)n3C)C2` [Example 124036], the response was half-maximal at 1640 nM (EC50) and the “Fold Increase” value is listed as 1.34.
